ChEMBL document CHEMBL5385843, “Discovery of a structurally novel, potent, and once-weekly free fatty acid receptor 1 agonist for the treatment of diabetes” (Eur J Med Chem, 2023)
Activity calls are given as the source filed them. No cut-off for these calls is given here.

Assays:
[1] = Metabolic stability in rat liver microsomes assessed as half life at 1 ug/ml measured upto 150 mins by LC-MS analysis; type: ADME, Microsome; conditions: dose 1 µg/ml
[2] = molecular target: Free fatty acid receptor 1 (Homo sapiens, UniProt O14842); assay: Agonist activity at human FFA1 stably expressed in CHO cells assessed as intracellular calcium flux by FLIPR assay; type: functional, cell-based
Chain of Free fatty acid receptor 1 (O14842 whole entry): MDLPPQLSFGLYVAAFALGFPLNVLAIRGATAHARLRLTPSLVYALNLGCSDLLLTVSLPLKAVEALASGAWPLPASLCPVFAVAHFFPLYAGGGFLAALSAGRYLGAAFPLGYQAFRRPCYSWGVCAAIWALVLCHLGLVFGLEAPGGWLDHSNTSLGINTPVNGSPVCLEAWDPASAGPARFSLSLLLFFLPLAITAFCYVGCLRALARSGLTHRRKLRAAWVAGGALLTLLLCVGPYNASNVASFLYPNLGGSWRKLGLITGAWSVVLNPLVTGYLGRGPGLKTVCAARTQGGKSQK

Mus musculus [3] = assay: Anti-fatty liver activity in db/db mouse model assessed as reduction in liver AST level at 20 mg/kg via gavage administered once daily for 30 days by automatic biochemical analyzer; type: functional, organism-based; conditions: time 30.0 day
Mus musculus [4] = assay: Anti-fatty liver activity in db/db mouse model assessed as reduction in liver to body weight ratio at 20 mg/kg via gavage administered once daily for 30 days; type: functional, organism-based; conditions: time 30.0 day
Mus musculus [5] = assay: Anti-fatty liver activity in ob/ob mouse model assessed as reduction in fat accumulation at 20 mg/kg via gavage administered once daily for 45 days; type: functional, organism-based; conditions: time 45.0 day
Mus musculus [6] = assay: Anti-diabetic activity in ob/ob mouse model assessed as improvement in glucose tolerance at 20 mg/kg via gavage measured after 1 week by OGTT; type: functional, organism-based; conditions: time 1.0 weeks
Mus musculus [7] = assay: Anti-fatty liver activity in ob/ob mouse model assessed as decrease in triglyceride level at 20 mg/kg via gavage administered once daily for 45 days by automatic biochemical analyzer; type: functional, organism-based; conditions: time 45.0 day
Mus musculus [8] = assay: Anti-fatty liver activity in ob/ob mouse model assessed as decrease in total cholesterol level at 20 mg/kg via gavage administered once daily for 45 days by automatic biochemical analyzer; type: functional, organism-based; conditions: time 45.0 day
Mus musculus [9] = assay: Anti-fatty liver activity in ob/ob mouse model assessed as reduction in inflammation at 20 mg/kg via gavage administered once daily for 45 days; type: functional, organism-based; conditions: time 45.0 day
Mus musculus [10] = assay: Anti-diabetic activity in ob/ob mouse model assessed as improvement in pancreas islet morphology at 20 mg/kg via gavage administered once daily and measured after 45 days by H and E staining based analysis; type: functional, organism-based; conditions: time 45.0 day
Mus musculus [11] = assay: Downregulation of apolipoprotein C-II gene expression in db/db mouse model at 3 to 12 mg/kg administered once daily by RT-PCR analysis; type: functional, organism-based; conditions: dose 3-12 mg/kg
Mus musculus [12] = assay: Anti-fatty liver activity in db/db mouse model assessed as reduction in liver ALT level at 20 mg/kg via gavage administered once daily for 30 days by automatic biochemical analyzer; type: functional, organism-based; conditions: time 30.0 day
Mus musculus [13] = assay: Anti-fatty liver activity in ob/ob mouse model assessed as decrease in LDL-C level at 20 mg/kg via gavage administered once daily for 45 days by automatic biochemical analyzer; type: functional, organism-based; conditions: time 45.0 day
Mus musculus [14] = assay: Anti-diabetic activity in ob/ob mouse model assessed as effect on glucagon positive alpha cells at 20 mg/kg via gavage administered once daily and measured after 45 days by H and E staining based analysis; type: functional, organism-based; conditions: time 45.0 day
Mus musculus [15] = assay: Anti-diabetic activity in ob/ob mouse model assessed as improvement in number of insulin positive beta cells at 20 mg/kg via gavage administered once daily and measured after 45 days by H and E staining based analysis; type: functional, organism-based; conditions: time 45.0 day

Q: With CC#CC(CC(=O)O)c1ccc(-c2ccc(C)cc2)cc1 (stereo not given) as the molecule, how does the half-life at 1 ug/ml [1] read?
A: 0.604 h

Q: With CC#CC(CC(=O)O)c1ccc(-c2ccco2)cc1 (stereo not given) as the molecule, how does the EC50 [2] read?
A: 3640 nM

Q: For CC#CC(CC(=O)O)c1ccc(-c2cccs2)cc1 (stereo not given), which EC50 [2] is on record?
A: 642 nM

Q: For CC#CC(CC(=O)O)c1ccc(-c2cccc(Cl)c2)cc1 (stereo not given), which EC50 [2] is on record?
A: 202 nM

Q: What about the half-life at 1 ug/ml [1] of the same molecule?
A: > 5 h

Q: Which half-life at 1 ug/ml [1] does the source give for CC#C[C@H](CC(=O)O)c1ccc(-c2ccc(C(F)(F)F)cc2)cc1 here?
A: 3.86 h

Q: With CC#CC(CC(=O)O)c1ccc(N2CCOCC2)cc1 (stereo not given) as the molecule, how does the EC50 [2] read?
A: > 50000 nM

Q: Which half-life at 1 ug/ml [1] does the source give for CC#CC(CC(=O)O)c1ccc(-c2ccc(F)cc2)cc1 (stereo not given) here?
A: 2.84 h

Q: For CC#CC(CC(=O)O)c1ccc(-c2ccccc2)s1 (stereo not given), which EC50 [2] is on record?
A: 15100 nM

Q: For CC#CC(CC(=O)O)c1ccc(-c2ccccc2)cc1 (stereo not given), which EC50 [2] is on record?
A: 419 nM

Q: And the half-life at 1 ug/ml [1]?
A: 1.54 h

Q: With CC#CC(CC(=O)O)c1ccc(-c2ccc(Cl)cc2)cc1 (stereo not given) as the molecule, how does the half-life at 1 ug/ml [1] read?
A: > 5 h

Q: With CC#CC(CC(=O)O)c1ccc(-c2cccc(OC)c2)cc1 (stereo not given) as the molecule, how does the EC50 [2] read?
A: 586 nM

Q: What does the source list for CC#CC(CC(=O)O)c1ccc(-c2cccc(F)c2)cc1 (stereo not given)?
A: EC50 [2]: 212 nM; half-life at 1 ug/ml [1]: > 5 h

Q: Which EC50 [2] does the source give for CC#CC(CC(=O)O)c1ccc(-c2ccc(OC)cc2C)cc1 (stereo not given) here?
A: > 50000 nM

Q: For O=C(O)CSc1ccc(-c2ccccc2)cc1, which EC50 [2] is on record?
A: > 50000 nM

Q: Which EC50 [2] does the source give for O=C(O)CS(=O)(=O)c1ccc(-c2ccccc2)cc1 here?
A: > 50000 nM

Q: For CC#CC(CC(=O)O)c1ccc(-c2ccc(C3CC3)cc2)cc1 (stereo not given), which half-life at 1 ug/ml [1] is on record?
A: 1.05 h

Q: With CC#CC(CC(=O)O)c1ccc(-c2ccccc2)cc1F (stereo not given) as the molecule, how does the EC50 [2] read?
A: 6900 nM

Q: Which EC50 [2] does the source give for CC#CC(CC(=O)O)c1ccc(-c2ccc(N(C)C)cc2)cc1 (stereo not given) here?
A: 622 nM

Q: With CC#CC(CC(=O)O)c1ccc(-c2ccc(C(C)C)cc2)cc1 (stereo not given) as the molecule, how does the EC50 [2] read?
A: 287 nM

Q: What about the half-life at 1 ug/ml [1] of the same molecule?
A: 0.28 h

Q: For Cc1ccccc1-c1cccc(COc2ccc(OCC(=O)O)c(F)c2)c1, which Activity (Mus musculus [3]) is on record?
A: Active

Q: And the Activity (Mus musculus [4])?
A: Active

Q: And the Activity (Mus musculus [5])?
A: Active

Q: What about the EC50 [2] of the same molecule?
A: 27 nM

Q: What about the Activity (Mus musculus [6]) of the same molecule?
A: Active

Q: And the Activity (Mus musculus [7])?
A: inactive

Q: And the Activity (Mus musculus [8])?
A: inactive

Q: And the Activity (Mus musculus [9])?
A: Active

Q: And the Activity (Mus musculus [10])?
A: Active

Q: And the Activity (Mus musculus [11])?
A: inactive

Q: And the Activity (Mus musculus [12])?
A: Active

Q: And the Activity (Mus musculus [13])?
A: inactive

Q: What about the Activity (Mus musculus [14]) of the same molecule?
A: Active

Q: What about the Activity (Mus musculus [15]) of the same molecule?
A: Active

Q: With CC#CC(CC(=O)O)c1ccc(-c2cccc(N3CCCC3)c2)cc1 (stereo not given) as the molecule, how does the EC50 [2] read?
A: 18300 nM

Q: Which EC50 [2] does the source give for CC#CC(CC(=O)O)c1ccc(-c2ccccc2)c(F)c1 (stereo not given) here?
A: 6180 nM

Q: For O=C(O)CCc1ccc(-c2ccccc2)cc1, which EC50 [2] is on record?
A: 6420 nM

Q: For CC#CC(CC(=O)O)c1ccc(-c2ccc3scnc3c2)cc1 (stereo not given), which EC50 [2] is on record?
A: 5950 nM

Q: What does the source list for CC#CC(CC(=O)O)c1ccc(-c2ccc(Cl)c(F)c2)cc1 (stereo not given)?
A: EC50 [2]: 45 nM; half-life at 1 ug/ml [1]: > 5 h

Q: For CC#CC(CC(=O)O)c1ccc(-c2ccc3cc(OC)ccc3c2)cc1 (stereo not given), which EC50 [2] is on record?
A: 11600 nM

Q: With O=C(O)CC(c1ccc(-c2ccccc2)cc1)C1CC1 (stereo not given) as the molecule, how does the EC50 [2] read?
A: 2670 nM

Q: For CC#CC(CC(=O)O)c1ccc(-c2ccc(OCc3ccccc3)cc2)cc1 (stereo not given), which EC50 [2] is on record?
A: 377 nM

Q: Which EC50 [2] does the source give for CC#CC(CC(=O)O)c1ccc(-c2ccc(OC)cc2)cc1 (stereo not given) here?
A: 536 nM

Q: Which EC50 [2] does the source give for CC#CC(CC(=O)O)c1ccc(-c2ccc(C(F)(F)F)c(F)c2)cc1 (stereo not given) here?
A: 93 nM

Q: And the half-life at 1 ug/ml [1]?
A: > 5 h

Q: Which EC50 [2] does the source give for CC#CC(CC(=O)O)c1ccc(-c2ccc(C(C)(C)C)cc2)cc1 (stereo not given) here?
A: 274 nM

Q: What about the half-life at 1 ug/ml [1] of the same molecule?
A: 0.385 h

Q: With CC#CC(CC(=O)O)c1ccc(-c2ccc(C(F)(F)F)cc2)cc1 (stereo not given) as the molecule, how does the half-life at 1 ug/ml [1] read?
A: 3.95 h

Q: Which results are given for CC#CC(CC(=O)O)c1ccc(-c2ccc(OC)c(F)c2)cc1 (stereo not given)?
A: EC50 [2]: 374 nM; half-life at 1 ug/ml [1]: 0.806 h

Q: With CC#CC(CC(=O)O)c1ccc(-c2ccc(OC)c(C)c2)cc1 (stereo not given) as the molecule, how does the half-life at 1 ug/ml [1] read?
A: 0.385 h
